Test results: patent US8859617B2, “Use of furan alkyl for preparing an antidiabetic drug” (Laboratoires Expanscience, priority 2004, dated 2014)

Columns and labels:
[1] = tested on: ME, FAS, ACC (fatty acid synthesis); test: mRNA analysis in the liver (Q-RT-PCR): ME, FAS, ACC; format: in vivo, mice; details: TZD
Description: (§1) the liver, the mRNA expressions of 8 genes were determined in 5 mice of each group using real-time Q-RT-PCR analysis.

mice on HF/HS diet [2] = test: Blood parameters: plasma lipids (cholesterol, LDL, HDL, TG, FFA); format: in vivo
Description: (§2) We used adult mice (aged 6 weeks) of masculine gender fattened on a high fat/high sucrose diet (HF/HS). Feeding with the HF/HS diet began on mice aged 6 weeks and continued throughout the period of the study. The study was conducted along 2 axes: • prevention: the product was administered as soon as feeding began with the HF/HS diet; • management (curative): the product was administered 12 weeks after the start of the HF/HS diet. Total treatment time (preventive and curative): 23 weeks.
(§3) Each experimental group comprised 10 mice.
(§4) Subsequently the following were analysed: lipoprotein profile (by size exclusion chromatography); apolipoportein Al; lipid composition of the liver (liver triglycerides, cholesterol and free fatty acids); histological analysis of the liver and adipose tissue; staining of accumulated lipids in the liver.
The different cholesterol blood levels and different fractions were analysed using a HPLC method.

mice on HF/HS diet [3] = test: Blood glucose and insulin analysis; format: in vivo
Description: as §2, §3, §4

mice on HF/HS diet [4] = test: Plasma lipoprotein profile (size exclusion chromatography); format: in vivo; details: TZD
Description: as §2, §3, §4

mice on HF/HS diet [5] = test: Intra Peritoneal Insulin Sensitive Test (IPIST); format: in vivo; details: preventive
Source text: The HF/HS diet induces a strong resistance to glucose. […] The test used is the Intra Peritoneal Insulin Sensitive Test—IPIST.

ACO (target PPARα) = test: mRNA analysis in the liver (Q-RT-PCR): ACO; format: in vivo, mice; details: TZD
Description: as §1

CYP7A1 = test: mRNA analysis in the liver (Q-RT-PCR): CYP7A1; format: in vivo, mice; details: TZD
Description: as §1

[6] = tested on: PGC-1 (mitochondria biogenesis); test: mRNA analysis in muscles and BAT: PGC-1; format: in vivo, mice; details: muscle; TZD
Description: In the brown adipose tissue (BAT) and in the muscles, the mRNA expression of 3 genes was determined in 5 mice of each group by real-time Q-RTR-PCR analysis.

PEPCK (target PPARγ) = test: mRNA analysis in the liver (Q-RT-PCR): PEPCK; format: in vivo, mice; details: TZD
Description: as §1

mice on HF/HS diet [7] = test: Hepatic metabolism: transaminases and alkaline phosphatase (liver toxicity); format: in vivo; details: plasma; considered very moderate, does not appear to reflect liver toxicity
mice on HF/HS diet [8] = test: Weight of mice on HF/HS diet; format: in vivo; details: curative; TZD added to food
Description: as §2, §3

mice on HF/HS diet [9] = test: Intraperitoneal Glucose Tolerance Test (IPGTT); format: in vivo; details: TZD; for Glucose resistance (IPGTT): preventive
Source text: Each study started at D-7 (i.e. 7 days before the start of the HF/HS diet) with an analysis of glucose tolerance using either an intra-peritoneal glucose tolerance test for some of the animals (n=5) or a sensitivity test to intravenous insulin for the other animals (n=5). At D=0 blood samples were taken to obtain basal condition values for all lipid and lipoprotein parameters, then the mice were randomly distributed irrespective of weight. The weight of each mouse and the quantity of food absorbed were measured twice a week. At weeks 3, 8, 15 and 23 the blood was collected after overnight fasting. At weeks 12 and 18 some of the animals (n=5) were subjected to an intra-peritoneal glucose tolerance test, the others (n=5) to a sensitivity test to intravenous insulin.
In addition this prevailing tolerance is often accompanied by insulin resistance. • Protocol: • fasted mice, • measurement of glycaemia at TO, • intra-peritoneal injection of glucose, • measurement of glycaemia 15, 30, 45, 60, 90, 120 and 180 min. after injection, • kinetics performed weeks 1, 12 and 18 in the preventive group and week 18 in the curative group.

[10] = curative, TZD 10 mg/kg/day, (3 W***)
[11] = curative, TZD, after 3 and 11 weeks
[12] = preventive, TZD 10 mg/kg/day, (3 W***)
[13] = preventive, TZD, after 3, 8, 15 and 23 weeks

Q: Which results are given for `CN(CCOc1ccc(CC2SC(=O)NC2=O)cc1)c1ccccn1` (stereo not shown) [TZD, Rosiglitazone]?
A: ME, FAS, ACC (fatty acid synthesis) mRNA [1]: ↑↑; Triglyceride level (mice on HF/HS diet [2]; curative, TZD): No change; LDL (mice on HF/HS diet [2]; curative, TZD 10 mg/kg/day): ↓; HDL (mice on HF/HS diet [2]; [10]): ↓↓; Total cholesterol (mice on HF/HS diet [2]; [10]): ↓↓; HDL cholesterol level (mice on HF/HS diet [2]; [11]): reduction; LDL cholesterol level (mice on HF/HS diet [2]; [11]): reduction; Total cholesterol (mice on HF/HS diet [2]; [11]): reduction; LDL cholesterol level (mice on HF/HS diet [2]; preventive, TZD): downward trend; TG (triglycerides) (mice on HF/HS diet [2]; preventive, TZD 10 mg/kg/day): ↓; HDL (mice on HF/HS diet [2]; [12]): ↓↓; Total cholesterol (mice on HF/HS diet [2]; [12]): ↓↓; HDL cholesterol level (mice on HF/HS diet [2]; [13]): significant reduction; Total cholesterol level (mice on HF/HS diet [2]; [13]): significant reduction; Plasma levels of triglycerides (mice on HF/HS diet [2]; preventive, TZD, after 8 weeks, no additional reduction after 15 and 23 weeks): significantly reduced; GLUCOSE (mice on HF/HS diet [3]; curative, TZD 10 mg/kg/day, (3 W**)): ↓↓; Glucose levels (mice on HF/HS diet [3]; [11]): dropped considerably; “Constitutive” hyperglycaemia (mice on HF/HS diet [3]; preventive, TZD): return to normal; GLUCOSE (mice on HF/HS diet [3]; preventive, TZD 10 mg/kg/day): ↓; INSULIN (mice on HF/HS diet [3]; preventive, TZD 10 mg/kg/day): ↓; Glucose level reduction (mice on HF/HS diet [3]; preventive, TZD, weeks 8, 15 and 23): no longer observed; HDL and VLDL cholesterol fractions (mice on HF/HS diet [4]; curative, after 3 weeks): reduction; HDL, LDL and VLDL cholesterol fractions (mice on HF/HS diet [4]; preventive, weeks 8 and 15): reduction; IPIST (mice on HF/HS diet [5]; TZD 10 mg/kg/day, (3 W***)): ↓↓; Insulin sensitivity (IPIST) (mice on HF/HS diet [5]; TZD, (15 min)): restores sensitivity to insulin; ACO (target PPARα) mRNA (ACO (target PPARα)): ↑; CYP7A1 (conversion oxysterol into biliary acids) mRNA (CYP7A1): ↑↑; PGC-1 (mitochondria biogenesis) mRNA [6]: ↑ (muscle); PEPCK (target PPARγ) mRNA (PEPCK (target PPARγ)): ↑; Alkaline phosphatase (ALP) (mice on HF/HS diet [7]): increase; Weight loss of overweight mice (mice on HF/HS diet [8]): did not cause the overweight mice to lose weight; Already established, diet-induced glucose resistance (mice on HF/HS diet [9]; curative): does not act; Glucose resistance (IPGTT) (mice on HF/HS diet [9]; at 12 weeks): AUC value intermediate between HF/HS and normal diet; Glucose resistance (IPGTT) (mice on HF/HS diet [9]; at 18 weeks, return to normal kinetics): completely cancels out the effects of the HF/HS diet
